Values joined by “and” are separate entries in the source; they are usually repeats but may differ in a detail not shown here. Identical values can stand only once.
Test system: rat peripheral blood erythrocyte populations
Settings: male rat, oral, 10 mg/kg body weight/day for 6 days
[1] = tail vein blood ~24 hours after final administration, single replicate, 10 mg/kg/day

SMILES: O=P1(N(CCCl)CCCl)NCCCO1 (centres unmarked) [cyclophosphamide]
- % RET^CD71+ (CD71-positive reticulocytes) (tail vein blood ~24 hours after final administration, single replicate, 20,000 RETs per replicate): 2.66% and 2.72% and 2.57%
- % MN-NCE (micronucleated normochromatic erythrocytes) [1]: 0.05% and 0.04% (2×)
- % MN-RET^CD71+ (micronucleated CD71-positive reticulocytes) [1]: 0.73% and 0.64% and 0.63%
- % MN-NCE (micronucleated normochromatic erythrocytes), Avg. (Avg. of 3 replicates): 0.04%
- % MN-RET^CD71+ (micronucleated CD71-positive reticulocytes), Avg. (Avg. of 3 replicates): 0.67%
- % RET^CD71+ (CD71-positive reticulocytes), Avg. (Avg. of 3 replicates): 2.65%
- DNA-breaking activity: MN-RET^CD71+ frequency versus water-treated rat (result in words): increased
- cytostatic effect: RET^CD71+ frequency versus water-treated rat (result in words): decreased

Source: US20030134305A1, “Method for the enumeration of mammalian micronucleated erythrocyte populations with a single-laser flow cytometer” (priority 2001, published 2003)
